Assay results as given in ChEMBL document CHEMBL3232963, “Discovery of a potent and selective α3β4 nicotinic acetylcholine receptor antagonist from an α-conotoxin synthetic combinatorial library” (J Med Chem, 2014).

Target: Neuronal acetylcholine receptor; alpha3/beta4 (Homo sapiens, UniProt P30926+P32297)
Assay: Inhibition of human alpha3beta4 nAChR expressed in Xenopus laevis oocytes by two-electrode voltage clamp technique
Format: cell-based

Chain of Neuronal acetylcholine receptor; alpha3/beta4 (P30926 whole entry): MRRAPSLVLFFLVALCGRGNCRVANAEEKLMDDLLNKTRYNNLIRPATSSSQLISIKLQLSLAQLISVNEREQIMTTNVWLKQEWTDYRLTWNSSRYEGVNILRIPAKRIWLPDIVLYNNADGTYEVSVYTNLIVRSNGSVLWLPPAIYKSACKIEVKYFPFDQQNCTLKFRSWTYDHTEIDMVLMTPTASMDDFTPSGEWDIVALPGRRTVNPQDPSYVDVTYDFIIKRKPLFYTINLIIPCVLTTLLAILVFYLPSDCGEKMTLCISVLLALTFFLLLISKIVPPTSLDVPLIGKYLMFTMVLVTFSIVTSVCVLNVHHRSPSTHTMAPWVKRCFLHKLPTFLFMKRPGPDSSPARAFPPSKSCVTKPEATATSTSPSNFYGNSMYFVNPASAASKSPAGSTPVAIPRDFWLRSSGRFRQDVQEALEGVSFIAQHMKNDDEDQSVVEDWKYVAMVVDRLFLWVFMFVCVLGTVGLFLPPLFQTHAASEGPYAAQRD
Chain of Neuronal acetylcholine receptor; alpha3/beta4 (P32297 whole entry): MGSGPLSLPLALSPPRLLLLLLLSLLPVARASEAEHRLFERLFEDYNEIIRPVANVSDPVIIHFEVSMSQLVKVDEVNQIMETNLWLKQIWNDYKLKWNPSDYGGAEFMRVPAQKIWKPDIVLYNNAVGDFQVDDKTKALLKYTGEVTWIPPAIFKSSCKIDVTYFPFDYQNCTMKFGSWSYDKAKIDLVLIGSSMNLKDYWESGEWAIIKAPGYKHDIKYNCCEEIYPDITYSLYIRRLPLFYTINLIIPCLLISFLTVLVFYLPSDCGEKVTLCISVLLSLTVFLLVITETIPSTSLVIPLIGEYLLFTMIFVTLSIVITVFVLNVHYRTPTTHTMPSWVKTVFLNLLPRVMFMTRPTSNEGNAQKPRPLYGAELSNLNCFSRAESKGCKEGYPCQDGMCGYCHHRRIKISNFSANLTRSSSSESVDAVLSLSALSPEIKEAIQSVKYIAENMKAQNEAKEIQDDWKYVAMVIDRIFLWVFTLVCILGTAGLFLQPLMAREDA

`CC[C@H](C)[C@@H]1NC(=O)[C@H](Cc2cnc[nH]2)NC(=O)[C@H](CCC(N)=O)NC(=O)[C@H](CC(N)=O)NC(=O)[C@H](CC(N)=O)NC(=O)CNC(=O)[C@H](C)NC(=O)[C@@H]2CSSC[C@H](NC(=O)CN)C(=O)N[C@@H](CSSC[C@@H](C(=O)O)NC1=O)C(=O)N[C@@H](CO)C(=O)N[C@@H](Cc1cnc[nH]1)C(=O)N1CCC[C@H]1C(=O)N[C@@H](C)C(=O)N2` gave an IC50 of 0.755 µM.
